Experimental data as given in patent publication US8088806B2 (Achillion Pharmaceuticals, Inc., priority 2005, dated 2012).

What follows are compounds tested on HCV replicon (assay: Replicon based assay of HCV replication inhibition (NPT ELISA)). Conditions: Hepatitis C virus, replicon based assay of HCV replication inhibition; Table IV; read-out: Activity.
Assay type: cell-based, Hepatitis C virus
How it was run: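 NPT (neomycin phosphotransferase) content, proportional to replicon replication, quantified by capture ELISA on day four. Before that, replicon-bearing Huh-7 cells in G418-free screening medium were exposed three days at 37° C to compound, typically six doses from 10 to 0.03 micromolar, with equal DMSO across wells.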

`CCOC(=O)Cc1ccc(-c2csc(Nc3ccc(OCCCOc4ccccc4)cc3)n2)s1` [compound 931, ethyl 2-(5-(2-(4-(3-phenoxypropoxy)phenylamino)thiazol-4-yl)thiophen-2-yl)acetate] and `CCOC(=O)Cc1ccc(-c2csc(Nc3ccc(OCCOc4ccccc4)c(C(F)(F)F)c3)n2)s1` [compound 933, ethyl 2-(5-(2-(4-(2-phenoxyethoxy)-3-(trifluoromethyl)phenylamino)thiazol-4-yl)thiophen-2-yl)acetate] fall in the same range of EC50: 1000 to 10000 nM for the first, 1000 to 10000 nM for the second.

`CCOC(=O)Cc1ccc(-c2csc(Nc3ccc(OCCN(CC)c4ccccc4)c(C(F)(F)F)c3)n2)s1` [compound 932] and `CCOC(=O)Cc1ccc(-c2csc(Nc3ccc(OCCSc4ccccc4)c(C(F)(F)F)c3)n2)s1` [compound 934, ethyl 2-(5-(2-(4-(2-(phenylthio)ethoxy)-3-(trifluoromethyl)phenylamino)thiazol-4-yl)thiophen-2-yl)acetate] fall in the same range of EC50: 1000 to 10000 nM for the first, 1000 to 10000 nM for the second.

`Cc1cccc(CCCCOc2ccc(Nc3nc(-c4cccnc4)cs3)cc2C(F)(F)F)c1` [compound 935, N-(4-(4-m-tolylbutoxy)-3-(trifluoromethyl)phenyl)-4-(pyridin-3-yl)thiazol-2-amine] and `Fc1ccc(CCCCOc2ccc(Nc3nc(-c4cccnc4)cs3)cc2C(F)(F)F)cc1` [compound 947, N-(4-(4-(4-fluorophenyl)butoxy)-3-(trifluoromethyl)phenyl)-4-(pyridin-3-yl)thiazol-2-amine] cannot be ordered by EC50: less than 1000 nM for the first, less than 1000 nM for the second.

`Cc1cc(Nc2nc(-c3cccnc3)cs2)ccc1OCCCCc1ccccc1` [compound 936, N-(4-(4-phenylbutoxy)-3-methylphenyl)-4-(pyridin-3-yl)thiazol-2-amine] and `FC(F)(F)c1cc(Nc2nc(-c3cccnc3)cs2)ccc1CCCCCc1ccccc1` [compound 938, N-(3-(trifluoromethyl)-4-(5-phenylpentyl)phenyl)-4-(pyridin-3-yl)thiazol-2-amine] cannot be ordered by EC50: less than 1000 nM for the first, less than 1000 nM for the second.

`C#CCCOc1ccc(Nc2nc(-c3cccnc3)cs2)cc1C(F)(F)F` [compound 937, N-(4-(but-3-ynyloxy)-3-(trifluoromethyl)phenyl)-4-(pyridin-3-yl)thiazol-2-amine] and `FC(F)(F)c1cc(Nc2nc(-c3cnccn3)cs2)ccc1OCCCCc1cccs1` [compound 941, N-(4-(4-(thiophen-2-yl)butoxy)-3-(trifluoromethyl)phenyl)-4-(pyrazin-2-yl)thiazol-2-amine] cannot be ordered by EC50: less than 1000 nM for the first, less than 1000 nM for the second.

`COc1ncc(-c2csc(Nc3ccc(CCCCCc4ccccc4)c(C(F)(F)F)c3)n2)cn1` [compound 939, N-(3-(trifluoromethyl)-4-(5-phenylpentyl)phenyl)-4-(2-methoxypyrimidin-5-yl)thiazol-2-amine] and `FC(F)(F)c1cc(Nc2nc(-c3cnccn3)cs2)ccc1OCCCCc1ccccc1` [compound 940, N-(4-(4-phenylbutoxy)-3-(trifluoromethyl)phenyl)-4-(pyrazin-2-yl)thiazol-2-amine] cannot be ordered by EC50: less than 1000 nM for the first, less than 1000 nM for the second.

`O=C(O)Cc1ccc(-c2csc(Nc3ccc(OCCCc4ccco4)c(C(F)(F)F)c3)n2)s1` [compound 943, 2-(5-(2-(4-(3-(furan-2-yl)propoxy)-3-(trifluoromethyl)phenylamino)thiazol-4-yl)thiophen-2-yl)acetic acid] and `CCOC(=O)Cc1ccc(-c2csc(Nc3ccc(OCCCc4ccco4)c(C(F)(F)F)c3)n2)s1` [compound 944, ethyl 2-(5-(2-(4-(3-(furan-2-yl)propoxy)-3-(trifluoromethyl)phenylamino)thiazol-4-yl)thiophen-2-yl) acetate] cannot be ordered by EC50: less than 1000 nM for the first, less than 1000 nM for the second.

`Fc1sc(Nc2ccc(OCCCC3CCCC3)c(C(F)(F)F)c2)nc1-c1cccnc1` [compound 945, N-(4-(3-cyclopentylpropoxy)-3-(trifluoromethyl)phenyl)-5-fluoro-4-(pyridin-3-yl)thiazol-2-amine] and `CCCCCCCCOc1ccc(Nc2nc(-c3cnc(OC)nc3)c(F)s2)cc1C(F)(F)F` [compound 946, 5-fluoro-N-(3-(trifluoromethyl)-4-(octyloxy)phenyl)-4-(2-methoxypyrimidin-5-yl)thiazol-2-amine] cannot be ordered by EC50: less than 1000 nM for the first, less than 1000 nM for the second.
